Measured values published in patent publication US20110178396A1, “Nicotinamide Derivatives” (CRC FOR BIOMEDICAL IMAGING DEVELOPMENT LTD., priority 2008, published 2011).

Tested on: B16F0 melanoma tumour
Experiment: Biodistribution in B16 melanoma bearing mice
Type: in vivo, C57BL/6J mice
Conditions: for Organ distribution Intestine / Organ distribution Liver / Organ distribution Spleen / Organ distribution Stomach / Organ distribution Thyroid / Organ distribution Tumour: B16F0 tumour, mean ± S.D.
Description: Animal experiments were performed in compliance with the NHMRC Australian Code of Practice for the care and use of animals for scientific purposes. Female C57BL/6J black and BALB/c nude albino mice of 5 weeks age were obtained from the Animal Resources Centre, Western Australia. B16F0 murine melanoma cells were originally obtained from European Collection of Cell Cultures (UK) and A375 human amelanotic melanoma cells were originally obtained from American Type Culture Collection (USA). Before transplantation, B16F0 and A375 melanoma cells were maintained as a monolayer in RPMI culture medium supplemented with 10% foetal calf serum and antibiotics and passaged with trypsinisation. Early passages were frozen and stored in liquid nitrogen. Cells were passaged to P=10 and then discarded. Frozen aliquots were grown in a monolayer culture to between 80-95% confluence and for transplantation were trypsinised and washed with Ca^2+ and Mg^2+ free phosphate buffered saline (PBS). For inoculation, B16F0 melanoma cells were resuspended in Ca^2+ and Mg^2+ free PBS at 3 or 5×10^6 viable cells per ml and 0.1 ml was subcutaneously injected at the left flank of 6-7 weeks old C57BL/6J mice. Eleven days later, tumours could be palpated in >98% of inoculated animals. A375 human melanoma cells were resuspended at 1×10^7 viablecells per ml and 0.1 ml was injected subcutaneously at the left flank of 6 weeks old BALB/c nude mice and 25-26 days later tumours could be palpated with ˜60% of inoculated animals developing tumours.
Eleven days (B16F0 melanoma) and 25 days (A375 human melanoma) after tumour transplantation, the [^18F]nicotinamides (0.5-1.5 MBq, 100 μl) and [^123I]nicotinamide (0.37-0.74 MBq, 100 μl) derivatives were injected intravenously via the tail vein into mice (15-18 g). Time points of 1, 3, 6, 24, 48, 72 h after injection were chosen for determining the distribution of each compound in various organs and tissues for the iodine-123 labelled compounds and between 15 min and 6 hours (e.g. 15 min, 30 min, 1 h, 2 h, 4 h or 6 h) were chosen for the ^18F-labelled compounds. At defined times post injection, groups of mice (n=5) were weighed, sacrificed by CO2 administration followed by cervical dislocation and dissected. Selected organs were weighed and their radioactivity measured with a γ-counter. The remaining activity in the carcass was also determined in order to obtain the total activity in the mouse at defined time points. The fraction of injected activity (% ID) in the organ was calculated by comparison with suitable dilutions of the injected dose. Then, the radioactivity concentration in the organ (% ID/g) was found by dividing the % ID for each organ by the weight of the organ.

[1] = B16 melanoma bearing mice, 15 min
[2] = B16 tumour, C57BL/6J mice, 1 h, mean ± SD, n = 5
[3] = B16 tumour, C57BL/6J mice, 6 h, mean ± SD, n = 5
[4] = B16 tumour, C57BL/6J mice, 24 h, mean ± SD, n = 5

CCN(CC)CCNC(=O)c1ccnc(F)c1 [[^18F]MEL8, 6-Fluoro-N-[2-(diethylamino)ethyl]isonicotinamide]
uptake BLOOD [1]: 2.55 % ID/g
uptake BONE [1]: 4.03 % ID/g
uptake BRAIN [1]: 3.47 % ID/g
uptake EYES [1]: 17.25 % ID/g
uptake GIT [1]: 7.03 % ID/g
uptake HEART [1]: 3.51 % ID/g
uptake KIDNEY [1]: 19.45 % ID/g
uptake LIVER [1]: 12.65 % ID/g
uptake LUNGS [1]: 5.67 % ID/g
uptake MUSCLE [1]: 4.16 % ID/g
uptake SKIN [1]: 2.40 % ID/g
uptake SPLEEN [1]: 10.27 % ID/g
uptake STOMACH [1]: 13.20 % ID/g
uptake THYROID [1]: 4.81 % ID/g
uptake TUMOUR [1]: 6.99 % ID/g
uptake BLOOD (B16 melanoma bearing mice, 1 h): 0.77 % ID/g
uptake BONE (B16 melanoma bearing mice, 1 h): 1.52 % ID/g
uptake BRAIN (B16 melanoma bearing mice, 1 h): 1.37 % ID/g
uptake EYES (B16 melanoma bearing mice, 1 h): 23.66 % ID/g
uptake GIT (B16 melanoma bearing mice, 1 h): 2.85 % ID/g
uptake HEART (B16 melanoma bearing mice, 1 h): 1.14 % ID/g
uptake KIDNEY (B16 melanoma bearing mice, 1 h): 4.75 % ID/g
uptake LIVER (B16 melanoma bearing mice, 1 h): 3.19 % ID/g
uptake LUNGS (B16 melanoma bearing mice, 1 h): 1.81 % ID/g
uptake MUSCLE (B16 melanoma bearing mice, 1 h): 1.27 % ID/g
uptake SKIN (B16 melanoma bearing mice, 1 h): 0.88 % ID/g
uptake SPLEEN (B16 melanoma bearing mice, 1 h): 3.19 % ID/g
uptake STOMACH (B16 melanoma bearing mice, 1 h): 5.25 % ID/g
uptake THYROID (B16 melanoma bearing mice, 1 h): 2.22 % ID/g
uptake TUMOUR (B16 melanoma bearing mice, 1 h): 12.22 % ID/g
uptake BLOOD (B16 melanoma bearing mice, 3 h): 0.12 % ID/g
uptake BONE (B16 melanoma bearing mice, 3 h): 0.77 % ID/g
uptake BRAIN (B16 melanoma bearing mice, 3 h): 0.19 % ID/g
uptake EYES (B16 melanoma bearing mice, 3 h): 18.81 % ID/g
uptake GIT (B16 melanoma bearing mice, 3 h): 0.72 % ID/g
uptake HEART (B16 melanoma bearing mice, 3 h): 0.33 % ID/g
uptake KIDNEY (B16 melanoma bearing mice, 3 h): 0.45 % ID/g
uptake LIVER (B16 melanoma bearing mice, 3 h): 0.42 % ID/g
uptake LUNGS (B16 melanoma bearing mice, 3 h): 0.37 % ID/g
uptake MUSCLE (B16 melanoma bearing mice, 3 h): 0.28 % ID/g
uptake SKIN (B16 melanoma bearing mice, 3 h): 0.15 % ID/g
uptake SPLEEN (B16 melanoma bearing mice, 3 h): 2.32 % ID/g
uptake STOMACH (B16 melanoma bearing mice, 3 h): 0.82 % ID/g
uptake THYROID (B16 melanoma bearing mice, 3 h): 1.48 % ID/g
uptake TUMOUR (B16 melanoma bearing mice, 3 h): 8.80 % ID/g
uptake BLOOD (B16 melanoma bearing mice, 6 h): 0.06 % ID/g
uptake BONE (B16 melanoma bearing mice, 6 h): 0.43 % ID/g
uptake BRAIN (B16 melanoma bearing mice, 6 h): 0.07 % ID/g
uptake EYES (B16 melanoma bearing mice, 6 h): 16.49 % ID/g
uptake GIT (B16 melanoma bearing mice, 6 h): 0.23 % ID/g
uptake HEART (B16 melanoma bearing mice, 6 h): 0.17 % ID/g
uptake KIDNEY (B16 melanoma bearing mice, 6 h): 0.25 % ID/g
uptake LIVER (B16 melanoma bearing mice, 6 h): 0.60 % ID/g
uptake LUNGS (B16 melanoma bearing mice, 6 h): 0.14 % ID/g
uptake MUSCLE (B16 melanoma bearing mice, 6 h): 0.17 % ID/g
uptake SKIN (B16 melanoma bearing mice, 6 h): 0.29 % ID/g
uptake SPLEEN (B16 melanoma bearing mice, 6 h): 1.31 % ID/g
uptake STOMACH (B16 melanoma bearing mice, 6 h): 0.30 % ID/g
uptake THYROID (B16 melanoma bearing mice, 6 h): 1.02 % ID/g
uptake TUMOUR (B16 melanoma bearing mice, 6 h): 7.20 % ID/g

CCCN(CCC)CCCCNC(=O)c1cncc(I)c1 [[^123I]17, N-(4-(Dipropylamino)butyl)-5-iodonicotinamide]
Organ distribution Intestine (C57BL/6J mice, 1 h, n = 5): 15 ± 1 % ID/organ
Organ distribution Liver (C57BL/6J mice, 1 h, n = 5): 2.0 ± 0.1 % ID/organ
Organ distribution Spleen (C57BL/6J mice, 1 h, n = 5): 0.54 ± 0.09 % ID/organ
Organ distribution Stomach (C57BL/6J mice, 1 h, n = 5): 6 ± 1 % ID/organ
Organ distribution Thyroid (C57BL/6J mice, 1 h, n = 5): 1.3 ± 0.4 % ID/organ
Organ distribution Tumour (C57BL/6J mice, 1 h, n = 5): 0.64 ± 0.20 % ID/organ
Organ distribution Intestine (C57BL/6J mice, 6 h, n = 5): 9 ± 1 % ID/organ
Organ distribution Liver (C57BL/6J mice, 6 h, n = 5): 0.95 ± 0.15 % ID/organ
Organ distribution Spleen (C57BL/6J mice, 6 h, n = 5): 0.13 ± 0.02 % ID/organ
Organ distribution Stomach (C57BL/6J mice, 6 h, n = 5): 6 ± 2 % ID/organ
Organ distribution Thyroid (C57BL/6J mice, 6 h, n = 5): 4.0 ± 0.9 % ID/organ
Organ distribution Tumour (C57BL/6J mice, 6 h, n = 5): 1.0 ± 0.2 % ID/organ
Organ distribution Intestine (C57BL/6J mice, 24 h, n = 5): 0.40 ± 0.07 % ID/organ
Organ distribution Liver (C57BL/6J mice, 24 h, n = 5): 0.14 ± 0.03 % ID/organ
Organ distribution Spleen (C57BL/6J mice, 24 h, n = 5): 0.02 ± 0.03 % ID/organ
Organ distribution Stomach (C57BL/6J mice, 24 h, n = 5): 0.17 ± 0.04 % ID/organ
Organ distribution Thyroid (C57BL/6J mice, 24 h, n = 5): 6.0 ± 1.6 % ID/organ
Organ distribution Tumour (C57BL/6J mice, 24 h, n = 5): 0.62 ± 0.22 % ID/organ
tumour standardized uptake value (SUVt) (B16 tumour, C57BL/6J mice, 1 h): 1.8 ± 0.1
Uptake Lung [2]: 7.5 ± 0.2 % ID/g
uptake BLOOD [2]: 3.1 ± 0.1 % ID/g
uptake BRAIN [2]: 0.42 ± 0.02 % ID/g
uptake HEART [2]: 1.9 ± 0.1 % ID/g
uptake KIDNEY [2]: 3.5 ± 0.2 % ID/g
uptake LIVER [2]: 2.1 ± 0.2 % ID/g
uptake TUMOUR [2]: 5.6 ± 0.3 % ID/g
tumour standardized uptake value (SUVt) (B16 tumour, C57BL/6J mice, 6 h): 2.2 ± 0.4
Uptake Lung [3]: 2.2 ± 0.2 % ID/g
uptake BLOOD [3]: 2.4 ± 0.3 % ID/g
uptake BRAIN [3]: 0.16 ± 0.03 % ID/g
uptake HEART [3]: 0.8 ± 0.1 % ID/g
uptake KIDNEY [3]: 1.7 ± 0.3 % ID/g
uptake LIVER [3]: 1.1 ± 0.1 % ID/g
uptake TUMOUR [3]: 5.0 ± 0.7 % ID/g
tumour standardized uptake value (SUVt) (B16 tumour, C57BL/6J mice, 24 h): 5.1 ± 1.3
Uptake Lung [4]: 0.15 ± 0.3 % ID/g
uptake BLOOD [4]: 0.13 ± 0.03 % ID/g
uptake BRAIN [4]: 0.02 % ID/g
uptake HEART [4]: 0.09 ± 0.02 % ID/g
uptake KIDNEY [4]: 0.12 ± 0.03 % ID/g
uptake LIVER [4]: 0.15 ± 0.03 % ID/g
uptake TUMOUR [4]: 2.3 ± 0.4 % ID/g
